# Test results: patent US5455271A, “Tight-binding inhibitors of leukotriene A4 hydrolase” (The Scripps Research Institute, priority 1993, dated 1995)
# “Also recorded” adds a separate entry of the source. Structures can show the parent of a compound that is named as a salt. Where two headings read alike, the source gives them in different places.
# Columns and labels:
# LTA4 hydrolase [1] = biological target: T1, LTA4 hydrolase (Homo sapiens, UniProt P09960); settings: literature; cited from earlier work
# T1 sequence (P09960 1-611): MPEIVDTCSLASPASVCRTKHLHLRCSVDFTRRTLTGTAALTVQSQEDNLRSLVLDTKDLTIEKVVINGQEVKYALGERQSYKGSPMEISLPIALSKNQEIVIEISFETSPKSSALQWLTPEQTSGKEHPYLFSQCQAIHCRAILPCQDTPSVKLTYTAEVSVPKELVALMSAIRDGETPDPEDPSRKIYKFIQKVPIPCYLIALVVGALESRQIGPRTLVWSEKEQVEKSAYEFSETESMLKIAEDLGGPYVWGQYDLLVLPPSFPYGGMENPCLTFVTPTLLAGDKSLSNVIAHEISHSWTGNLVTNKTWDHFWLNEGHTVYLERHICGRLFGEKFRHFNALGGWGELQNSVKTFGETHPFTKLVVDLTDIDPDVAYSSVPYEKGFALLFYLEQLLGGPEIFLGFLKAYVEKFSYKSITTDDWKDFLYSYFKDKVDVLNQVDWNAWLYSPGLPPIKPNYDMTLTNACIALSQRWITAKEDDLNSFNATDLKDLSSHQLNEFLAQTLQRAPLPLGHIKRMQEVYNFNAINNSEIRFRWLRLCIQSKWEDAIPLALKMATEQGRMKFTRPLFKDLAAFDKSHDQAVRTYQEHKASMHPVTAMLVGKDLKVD
# [2] = biological target: T2, LTA4 hydrolase (epoxide hydrolase activity) (Homo sapiens, UniProt P09960); assay: Inhibition of epoxide hydrolase activity of LTA4 hydrolase, LTA4 as substrate; format: biochemical
# T2 construct: obtained from human leukocytes and was purified to apparent homogeneity; from tissue; host or cells: human leukocytes (purified to apparent homogeneity)
# T2 sequence (P09960 1-611): T1 sequence (P09960 1-611)
# LTA4 hydrolase [3] = biological target: T1, LTA4 hydrolase; assay: Inhibition of LTA4 hydrolase, amidase (aminopeptidase) activity, L-alanyl p-nitroanilide as substrate; format: biochemical; design: LTA4 hydrolase purified from human leukocytes; from tissue; host or cells: human leukocytes (purified enzyme); settings: for Ki: Dixon plot
# Thromboxane B2 (TXB2) = assay: Inhibition of thromboxane B2 (TXB2) in calcium ionophore A-23187-stimulated human blood; format: cell-based
# Leukotriene B4 (LTB4) = assay: Inhibition of leukotriene B4 (LTB4) in calcium ionophore A-23187-stimulated human blood; format: cell-based; settings: Homo sapiens
# [4] = biological target: cytosolic leucine aminopeptidase; assay: Inhibition of cytosolic leucine aminopeptidase; format: biochemical
# LTA4 hydrolase [5] = biological target: T1, LTA4 hydrolase; assay: Kinetic parameters of LTA4 hydrolase-catalyzed hydrolysis of LTA4 and amide substrates; format: biochemical
# Method: Several amino acid amides were assayed as substrates for LTA4 hydrolase. Yuan et al., Bioorg. & Med. Chem. Lett., 1:551 (1991).
# ^a Determined in 50 mM TrisCl, pH 7.6, in the presence of 0.1 M NaCl, […]
# [6] = L-alanyl p-nitroanilide 1.5 mM, pH 8.0
# [7] = Table 3, 1 μM, read-out: % Inhibition TXB2
# [8] = Table 3, 3 μM, read-out: % Inhibition TXB2
# [9] = Table 3, 10 μM, read-out: % Inhibition TXB2
# [10] = Table 4, 10 μM, read-out: % Inhibition TXB2
# [11] = Table 3, read-out: % Inhibition LTB4
# [12] = Table 4, read-out: % Inhibition LTB4
# [13] = L-alanyl p-nitroanilide 1.5 mM, pH 8.0, thiols with 5 mM DTT
# [14] = Table 5, read-out: IC50 Epoxide Hydrolase
# [15] = read-out: % Inhibition LTB4, Table 3
structure (smiles),measurement,setting,value
CC(C)C[C@H](NC(=O)[C@@H](O)[C@H](N)Cc1ccccc1)C(=O)O [Bestatin],"inhibition of LTA4 hydrolase, type of inhibition (in words)",LTA4 hydrolase [1],reversible inhibitors
"C[C@H](CS)C(=O)N1CCC[C@H]1C(=O)O [Captopril, reference compound]",IC50,[2],240 µM
same,"inhibition of LTA4 hydrolase, type of inhibition (in words)",LTA4 hydrolase [1],reversible inhibitors
"COC(=O)[C@H](O)[C@@H](N)Cc1ccccc1 [Compound 1, (2R, 3S)-AHPA methyl ester]",inhibition of LTA4 hydrolase (in words),LTA4 hydrolase [3],poor or no inhibition
"COC(=O)[C@@H](O)[C@@H](N)Cc1ccccc1 [Compound 2, (2S, 3S)-AHPA methyl ester]",Ki,LTA4 hydrolase [3]; [6],50 µM
"COC(=O)[C@@H](O)[C@H](N)Cc1ccccc1 [Compound 3, (2S, 3R)-AHPA methyl ester]",inhibition of LTA4 hydrolase (in words),LTA4 hydrolase [3],poor or no inhibition; also recorded: exhibited no activity
"COC(=O)[C@H](O)[C@H](N)Cc1ccccc1 [Compound 4, (2R, 3R)-AHPA methyl ester]",inhibition of LTA4 hydrolase (in words),LTA4 hydrolase [3],poor or no inhibition
"N[C@@H](Cc1ccccc1)[C@H](O)C(=O)O [Compound 5, (2S,3S)-AHPA]",inhibition of LTA4 hydrolase (in words),LTA4 hydrolase [3],loss of their inhibition potency
"N[C@H](Cc1ccccc1)[C@H](O)C(=O)O [Compound 6, (2S,3R)-AHPA]",inhibition of LTA4 hydrolase (in words),LTA4 hydrolase [3],loss of their inhibition potency
"CC(C)C[C@H](NC(=O)[C@@H](O)[C@@H](N)Cc1ccccc1)C(=O)O [Compound 7, (2S, 3S)-AHPA-L-Leu]",inhibition at 1 µM,Thromboxane B2 (TXB2); [7],21%
same,inhibition at 3 µM,Thromboxane B2 (TXB2); [8],15%
same,inhibition at 10 µM,Thromboxane B2 (TXB2); [9],24%
same,inhibition at 10 µM,Thromboxane B2 (TXB2); [10],0%
same,inhibition at 3 µM,Leukotriene B4 (LTB4); [11],10%
same,inhibition at 10 µM,Leukotriene B4 (LTB4); [11],37%
same,inhibition at 10 µM,Leukotriene B4 (LTB4); [12],25%
"N[C@@H](Cc1ccccc1)[C@H](O)C(=O)NCC(=O)O [Compound 8, (2S, 3S) -AHPA-Gly]",Ki,LTA4 hydrolase [3]; [6],15 µM
same,IC50,LTA4 hydrolase [3]; [13],15 µM
N[C@H](Cc1ccccc1)[C@H](O)C(=O)NCCC(=O)O [Compound 9],IC50,LTA4 hydrolase [3]; [13],100 µM
"N[C@@H](Cc1ccccc1)[C@H](O)C(=O)NCCC(=O)O [Compound 10, (2S, 3S) -AHPA-β-Ala]",inhibition at 1 µM,Thromboxane B2 (TXB2); [7],12%
same,inhibition at 3 µM,Thromboxane B2 (TXB2); [8],21%
same,inhibition at 10 µM,Thromboxane B2 (TXB2); [9],19%
same,inhibition at 1 µM,Leukotriene B4 (LTB4); [11],14%
same,inhibition at 3 µM,Leukotriene B4 (LTB4); [11],39%
same,inhibition at 10 µM,Leukotriene B4 (LTB4); [11],15%
same,IC50,LTA4 hydrolase [3]; [13],80 µM
COC(=O)C(S)[C@@H](N)Cc1ccccc1 (some centres unmarked) [Compound 11],inhibition of LTA4 hydrolase (in words),LTA4 hydrolase [3],poor inhibitors
COC(=O)C(S)[C@H](N)Cc1ccccc1 (some centres unmarked) [Compound 12],inhibition of LTA4 hydrolase (in words),LTA4 hydrolase [3],poor inhibitors
NC(Cc1ccccc1)P(=O)(O)NCC(=O)O (centres unmarked) [Compound 16],inhibition of LTA4 hydrolase (in words),LTA4 hydrolase [3],a much weaker inhibitor than Compound 8
CCOC(=O)CC(F)(F)C(=O)/C=C/c1ccccc1 [Compound 17],inhibition of the enzyme at 1 mM concentration (in words),LTA4 hydrolase [3],did not inhibit the enzyme
CCOC(=O)C(F)(F)C(=O)c1nc[nH]c1C [Compound 18],inhibition of the enzyme at 1 mM concentration (in words),LTA4 hydrolase [3],did not inhibit the enzyme
same,IC50,LTA4 hydrolase [3]; footnote d: less than 10 percent inhibition was observed at this concentration,> 1000 µM
N[C@@H](Cc1ccccc1)[C@H](O)C(=O)OCc1ccccc1 [Compound 20],IC50,[2]; [14],100 µM
same,inhibition of LTA4 hydrolase (in words),LTA4 hydrolase [3],bound more tightly than the amide
same,IC50,LTA4 hydrolase [3]; [13],0.8 µM
COC(=O)C(=O)[C@@H](N)Cc1ccccc1 [Compound 21],inhibition at 10 µM,Thromboxane B2 (TXB2); [10],0%
same,inhibition at 10 µM,Leukotriene B4 (LTB4); [12],8%
same,inhibition of LTA4 hydrolase (in words),LTA4 hydrolase [3],comparable with Compound 2
same,IC50,LTA4 hydrolase [3]; [13],80 µM
CC(C)C[C@H](NC(=O)C(=O)[C@@H](N)Cc1ccccc1)C(=O)O [Compound 22],inhibition of LTA4 hydrolase (in words),LTA4 hydrolase [3],better than the corresponding α-(S)--OH derivative Compound 7
same,IC50,LTA4 hydrolase [3]; [13],0.5 µM
COC(=O)[C@@H](O)[C@@H](N)Cc1ccc(OCc2ccccc2)cc1 [Compound 23],IC50,LTA4 hydrolase [3]; [13],20 µM
N[C@@H](Cc1ccc(OCc2ccccc2)cc1)C(=O)C(=O)OCc1ccccc1 [Compound 26],IC50,[4],> 100 µM
same,inhibition at 1 µM,"Thromboxane B2 (TXB2); read-out: % Inhibition TXB2, Table 3, 1 μM",8%
same,inhibition at 3 µM,"Thromboxane B2 (TXB2); read-out: % Inhibition TXB2, Table 3, 3 μM",7%
same,inhibition at 10 µM,"Thromboxane B2 (TXB2); read-out: % Inhibition TXB2, Table 3, 10 μM",28%
same,inhibition at 1 µM,Leukotriene B4 (LTB4); [15],15%
same,inhibition at 3 µM,Leukotriene B4 (LTB4); [15],17%
same,inhibition at 10 µM,Leukotriene B4 (LTB4); [15],24%
"NC(CSSCC(N)Cc1ccc(OCc2ccccc2)cc1)Cc1ccc(OCc2ccccc2)cc1 [Compound 27a, Di-((2S)-3-[4-(benzyloxy)phenyl]-2-amino-propane)-disulphide HCl]",inhibition at 10 µM,Thromboxane B2 (TXB2); [10],24%
same,inhibition at 10 µM,Leukotriene B4 (LTB4); [12],100%
same,IC50,"Leukotriene B4 (LTB4); concentrations of about 0.3-10 μM, readout not restated, read-out: IC50 in this assay (human blood)",~0.81 µM
N[C@@H](Cc1ccc(OCc2ccccc2)cc1)C(=O)c1cccc(C(=O)O)c1 [Compound 28],inhibition at 10 µM,Thromboxane B2 (TXB2); [10],0%
same,inhibition at 10 µM,Leukotriene B4 (LTB4); [12],16%
same,IC50,LTA4 hydrolase [3]; [13],3 µM
N[C@@H](Cc1ccc(OCc2ccccc2)cc1)C(=O)c1ccc(C(F)(F)F)cc1 [Compound 29],IC50,[2]; [14],> 100 µM
same,inhibition at 10 µM,Thromboxane B2 (TXB2); [10],0%
same,IC50,LTA4 hydrolase [3]; [13],10 µM
N[C@@H](Cc1ccccc1)C(=O)Cc1ccccc1 [Compound 30],IC50,[2]; [14],> 100 µM
same,inhibition at 10 µM,Thromboxane B2 (TXB2); [10],6%
same,inhibition at 10 µM,Leukotriene B4 (LTB4); [12],15%
same,Ki,LTA4 hydrolase [3]; [6],14 µM
"N[C@@H](Cc1ccccc1)[C@H](O)Cc1ccccc1 [Compound 44, (2R, 3S)-1,4-Diphenyl-2-hydroxy-3-amino-butane HCl]",IC50,LTA4 hydrolase [3]; [13],140 µM
"N[C@@H](Cc1ccccc1)C(=O)CCCC(=O)O [Compound 45, (6S) -5-Oxo-6-amino-7-phenyl-heptanoic acid HCl]",inhibition at 10 µM,Thromboxane B2 (TXB2); [10],12%
same,inhibition at 10 µM,Leukotriene B4 (LTB4); [12],11%
same,IC50,LTA4 hydrolase [3]; [13],20 µM
"N[C@@H](Cc1ccc(OCc2ccccc2)cc1)C(=O)CCCc1ccccc1 [Compound 54, (2S)-1-[4-(Benzyloxy)phenyl]-6-phenyl-2-amino-3-oxo-hexane HCl]",IC50,LTA4 hydrolase [3]; [6],0.03 µM
"NC[C@@H](N)Cc1ccc(OCc2ccc3ccccc3c2)cc1 [Compound 60, (2S) -3-[4-(2-Naphthylmethyloxy)phenyl]-1,2-diamino-propane HCl]",IC50,LTA4 hydrolase [3]; [13],0.55 µM
"C[C@@H](N)C(=O)Nc1ccc([N+](=O)[O-])cc1 [D-Ala p-nitroanilide, D-Alanine p-nitroanilide]",acceptance as substrate for LTA4 hydrolase (in words),LTA4 hydrolase [5],not acceptable
same,Vmax,"LTA4 hydrolase [5]; Table 1, 50 mM TrisCl, pH 7.6, 0.1 M NaCl",0 nmol/min/mg
"C[C@H](N)C(=O)Nc1ccc([N+](=O)[O-])cc1 [L-Ala p-nitroanilide, L-alanine p-nitroanilide]",acceptance as substrate for LTA4 hydrolase (in words),LTA4 hydrolase [5],the best
CCCCCCCC\C=C/C=C/C=C/[C@@H]1O[C@H]1CCCC(=O)O [LTA3],"inhibition of LTA4 hydrolase, type of inhibition (in words)",LTA4 hydrolase [1],irreversibly inhibited
CC/C=C\C/C=C\C\C=C/C=C/C=C/[C@@H]1O[C@H]1CCCC(=O)O [LTA5],"inhibition of LTA4 hydrolase, type of inhibition (in words)",LTA4 hydrolase [1],irreversibly inhibited
"COC(=O)[C@@H](O)[C@H](Cc1ccccc1)NC(=O)OC(C)(C)C [N-Boc-2S, 3S)-AHPA methyl ester, N-Boc-(2S, 3S) -AHPA methyl ester]",inhibition of LTA4 hydrolase (in words),LTA4 hydrolase [3],no inhibition activity
